We go through 15 compounds from patent US8852554B2, “Radiolabelled PDE10 ligands” (Janssen Pharmaceutica NV, priority 2009, dated 2014).

Series [1] addresses T1, Rat recombinant PDE10A (rPDE10A) (Rattus norvegicus, UniProt Q9QYJ6).
T1 construct: made in house; host or cells: Sf9 insect cells (baculovirus)
T1 sequence (Q9QYJ6 1-794): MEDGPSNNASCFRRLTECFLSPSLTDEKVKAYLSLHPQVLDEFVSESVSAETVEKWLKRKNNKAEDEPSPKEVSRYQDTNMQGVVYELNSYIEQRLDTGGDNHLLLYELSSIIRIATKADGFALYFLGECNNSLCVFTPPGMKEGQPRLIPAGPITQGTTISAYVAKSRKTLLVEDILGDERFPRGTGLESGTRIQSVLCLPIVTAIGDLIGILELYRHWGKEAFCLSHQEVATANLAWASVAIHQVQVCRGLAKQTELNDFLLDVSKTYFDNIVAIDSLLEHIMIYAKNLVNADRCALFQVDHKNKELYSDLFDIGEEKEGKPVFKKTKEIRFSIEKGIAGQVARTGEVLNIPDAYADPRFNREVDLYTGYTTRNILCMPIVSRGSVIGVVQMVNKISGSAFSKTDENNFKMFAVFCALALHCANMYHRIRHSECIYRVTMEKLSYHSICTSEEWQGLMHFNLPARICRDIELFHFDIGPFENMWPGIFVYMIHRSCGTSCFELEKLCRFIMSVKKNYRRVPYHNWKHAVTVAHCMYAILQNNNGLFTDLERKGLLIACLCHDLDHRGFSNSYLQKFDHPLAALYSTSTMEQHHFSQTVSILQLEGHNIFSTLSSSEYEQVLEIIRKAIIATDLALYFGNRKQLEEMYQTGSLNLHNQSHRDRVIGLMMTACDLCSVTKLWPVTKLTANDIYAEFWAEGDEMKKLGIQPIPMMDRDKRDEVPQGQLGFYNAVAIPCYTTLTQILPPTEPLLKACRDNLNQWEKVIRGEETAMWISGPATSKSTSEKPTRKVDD
As to the kind of experiment: rat PDE10A2-cAMP inhibition, in vitro SPA assay. It is filed as biochemical. The note with it: 60 nM cAMP substrate. The method, then:
Rat recombinant PDE10A (rPDE10A) was expressed in Sf9 cells using a recombinant rPDE10A baculovirus construct. Cells were harvested after 48 h of infection and the rPDE10A protein was purified by metal chelate chromatography on Ni-sepharose 6FF. Tested compounds were dissolved and diluted in 100% DMSO to a concentration 100 fold of the final concentration in the assay. Compound dilutions (0.4 μl) were added in 384 well plates to 20 μl of incubation buffer (50 mM Tris pH 7.8, 8.3 mM MgCl2, 1.7 mM EGTA). 10 μl of rPDE10A enzyme in incubation buffer was added and the reaction was started by addition of 10 μl substrate to a final concentration of 60 nM cAMP and 0.008 μCi 3H-cAMP. The reaction was incubated for 60 minutes at room temperature. […] After sedimentation of the beads during 30 minutes, the radioactivity was measured in a Perkin Elmer Topcount scintillation counter and results were expressed as cpm. For blanc values the enzyme was omitted from the reaction and replaced by incubation buffer. Control values were obtained by addition of a final concentration of 1% DMSO instead of compound.

In series [2] the target is T2, PDE10A (Rattus norvegicus, UniProt Q9QYJ6).
T2 construct: from tissue; host or cells: brain (striatum) of living male Wistar rats, in vivo microPET
T2 sequence (Q9QYJ6 1-794): T1 sequence (Q9QYJ6 1-794)
Briefly: MicroPET imaging studies. It counts as in vivo, male Wistar rats. The note with it: simplified reference tissue model, cerebellum as reference. The method, then:
Imaging experiments were performed on a Focus™ 220 microPET scanner (Concorde Microsystems, Knoxville, Tenn., USA) using male Wistar rats with body weight varying between 300 and 600 g. […] Dynamic scans of 120 min were acquired in list mode. After reconstruction of the images, they were semi-automatically co-registered with a [^11C]raclopride template of the rat brain, and volumes of interest (VOIs) were generated for different anatomical brain structures (striatum, cerebral cortex and cerebellum) from which time-activity curves (TAC) were constructed for each individual image, using PMOD software (PMOD Technologies Ltd.). Normalization for body weight of the animal and injected dose was done. The radioactivity concentration in the different brain regions was expressed as SUV (standardized uptake value) as a function of time in seconds post injection of the radiotracer. The parametric binding potential (BP) values were calculated for all acquired images by using a simplified reference tissue model where the TAC of the cerebellum was used as input TAC for non-specific binding, using the same software (PMOD).
The radioactivity concentration in the different brain regions was expressed as SUV value as a function of time p.i. of the radiotracer by normalization for body weight of the animal and injected dose.

pIC50: −log10 of the molar value. Where a name gives a salt, the structure may show the parent alone.

For orientation: melting point means the temperature of the solid-liquid transition. `FCCOc1cccnc1COc1ccc(-c2nn(CCF)cc2-c2ccncc2)cc1` (as salt: succinate) [Compound B17, 3-(2-fluoroethoxy)-2-[[4-[1-(2-fluoroethyl)-4-(4-pyridinyl)-1H-pyrazol-3-yl]phenoxy]methyl]pyridine.succinate] displayed a melting point of 114.18 °C.

`COc1cccc(COc2ccc(-c3nn(CCF)cc3-c3ccncc3)cc2)n1` (as salt: succinate) [Compound B24, 2-[[4-[1-(2-fluoroethyl)-4-(4-pyridinyl)-1H-pyrazol-3-yl]phenoxy]methyl]-6-methoxy-pyridine.succinate]: the melting point stood at 113.25 °C.

In the case of `CCOc1cccc(COc2ccc(-c3nn(CCF)cc3-c3ccncc3)cc2)n1` (as salt: succinate) [Compound B25, 2-ethoxy-6-[[4-[1-(2-fluoroethyl)-4-(4-pyridinyl)-1H-pyrazol-3-yl]phenoxy]methyl]-pyridine.succinate], the melting point amounted to 119.65 °C.

For `Cc1cnc(COc2ccc(-c3nn(CCF)cc3-c3ccncc3)cc2)c(C)c1C` (as salt: succinate) [Compound B28, 2-[[4-[1-(2-fluoroethyl)-4-(4-pyridinyl)-1H-pyrazol-3-yl]phenoxy]methyl]-3,4,5-trimethyl-pyridine.succinate], the melting point was 197.08 °C.

For orientation: pIC50 means the IC50 on a negative log10 scale, so that one unit is a factor of ten. In the case of `COc1ccc(COc2ccc(-c3nn(CCF)cc3-c3ccncc3)cc2)nc1` [Compound B4, 2-[[4-[1-(2-fluoroethyl)-4-(4-pyridinyl)-1H-pyrazol-3-yl]phenoxy]methyl]-5-methoxy-pyridine], the melting point came to 117.52 °C. Also, in series [1], the negative-log IC50 (pIC50) was 8.48.

As for `COc1ccc(COc2ccc(-c3nn(CC(F)(F)F)cc3-c3ccncc3)cc2)nc1` [Compound B5, 5-methoxy-2-[[4-[4-(4-pyridinyl)-1-(2,2,2-trifluoroethyl)-1H-pyrazol-3-yl]phenoxy]methyl]-pyridine], the melting point is 136.3 °C. For the same compound, the pIC50 in series [1] was 8.29.

For the compound `COc1cccnc1COc1ccc(-c2nn(CC(F)(F)F)cc2-c2ccncc2)cc1` [Compound B9, 3-methoxy-2-[[4-[4-(4-pyridinyl)-1-(2,2,2-trifluoroethyl)-1H-pyrazol-3-yl]phenoxy]methyl]-pyridine], the melting point was found to be 147 °C. Besides, in series [1], the pIC50 was 8.29.

Turning to `COc1cccnc1COc1ccc(-c2nn(CCCF)cc2-c2ccncc2)cc1` [Compound B12, 2-[[4-[1-(3-fluoropropyl)-4-(4-pyridinyl)-1H-pyrazol-3-yl]phenoxy]methyl]-3-methoxy-pyridine], the melting point turned out to be 165.9 °C. Moreover, in series [1], the negative logarithm of the IC50 (pIC50) was 7.88.

The compound `FCCCn1cc(-c2ccncc2)c(-c2ccc(OCc3ccc(OCCF)cn3)cc2)n1` [Compound B15, 5-(2-fluoroethoxy)-2-[[4-[1-(3-fluoropropyl)-4-(4-pyridinyl)-1H-pyrazol-3-yl]phenoxy]methyl]-pyridine] showed a melting point of 206.8 °C. In series [1], the pIC50 is 6.60.

On to `FCCOc1ccc(COc2ccc(-c3nn(CCF)cc3-c3ccncc3)cc2)nc1` [Compound B19, 5-(2-fluoroethoxy)-2-[[4-[1-(2-fluoroethyl)-4-(4-pyridinyl)-1H-pyrazol-3-yl]phenoxy]methyl]-pyridine], for which the melting point was 212.7 °C. For the same compound, in series [1], the pIC50 is 7.00.

Compound `FCCn1cc(-c2ccncc2)c(-c2ccc(OCc3ccc(Br)cn3)cc2)n1` [Compound B20, 5-bromo-2-[[4-[1-(2-fluoroethyl)-4-(4-pyridinyl)-1H-pyrazol-3-yl]phenoxy]methyl]-pyridine] yielded a melting point of 125.8 °C. Also, in series [1], the pIC50 was 8.02.

In turn, `FCCn1cc(-c2ccncc2)c(-c2ccc(OCc3ccc(C(F)(F)F)cn3)cc2)n1` [Compound B22, 2-[[4-[1-(2-fluoroethyl)-4-(4-pyridinyl)-1H-pyrazol-3-yl]phenoxy]methyl]-5-(trifluoromethyl)-pyridine] came in with a melting point of 133.23 °C. Moreover, in series [1], the negative-log IC50 (pIC50) was 7.04.

The compound `N#Cc1cccc(COc2ccc(-c3nn(CCF)cc3-c3ccncc3)cc2)n1` [Compound B26, 6-[[4-[1-(2-fluoroethyl)-4-(4-pyridinyl)-1H-pyrazol-3-yl]phenoxy]methyl]-2-pyridinecarbonitrile] returned a melting point of 148.7 °C. For the same compound, the pIC50 in series [1] is 7.48.

`COc1ccc(Br)c(COc2ccc(-c3nn(CCF)cc3-c3ccncc3)cc2)n1` [Compound B27, 3-bromo-2-[[4-[1-(2-fluoroethyl)-4-(4-pyridinyl)-1H-pyrazol-3-yl]phenoxy]methyl]-6-methoxy-pyridine] yielded a melting point of 119.2 °C. Besides, the pIC50 in series [1] was 7.55.

With `Cc1cnc(COc2ccc(-c3nn(CC[18F])cc3-c3ccncc3)cc2)c(C)c1` [[^18F]B-3], the “BP (binding potential) at baseline” value in series [2] was found to be 4.1.
